Measured values from EPA's ToxRefDB 2.

Experiments:
mouse [1] = settings: Carcinogenicity, b6c3f1, Oral, Feed, dose end: 103 week, group: systemic
mouse [2] = settings: Sub-acute repeat dose toxicity, b6c3f1, Oral, Feed, dose end: 14 day, group: systemic
mouse [3] = settings: Subchronic oral toxicity in rodents, b6c3f1, Feed, dose end: 13 week, group: systemic
rat [4] = settings: Subchronic oral toxicity in rodents, fischer, Feed, dose end: 13 week, group: systemic
rat [5] = settings: Sub-acute repeat dose toxicity, fischer, Oral, Feed, dose end: 14 day, group: systemic
rat [6] = settings: Carcinogenicity; fischer; Oral; Feed; dose end: 103 week; group: systemic; systemic / in life observation / body weight / body weight
[7] = systemic / in life observation / body weight / body weight
[8] = systemic / in life observation / body weight / body weight + systemic / pathology microscopic / liver / adenoma/carcinoma combined + …
[9] = systemic / in life observation / body weight / body weight + systemic / in life observation / food consumption / food consumption + systemic…
[10] = systemic / in life observation / body weight / body weight gain
[11] = systemic / in life observation / body weight / body weight gain + systemic / in life observation / body weight / body weight
[12] = systemic / in life observation / body weight / body weight gain + systemic / in life observation / food consumption / food consumption + …

With `CCCCC(CC)COC(=O)CCCCC(=O)OCC(CC)CCCC` (centres undefined) [Di(2-ethylhexyl) adipate] the LOAEL (mouse [1]; [7]) was 1800 mg/kg/day, the NOAEL (mouse [1]; [7]) was < 1800 mg/kg/day and the LEL (mouse [1]; [8]) was 1800 mg/kg/day. For the same compound, the NEL (mouse [1]; [8]) was < 1800 mg/kg/day, the LEL (mouse [2]; [7]) was 3750 mg/kg/day and the LOAEL (mouse [2]; [7]) was 7500 mg/kg/day. The NEL (mouse [2]; [9]) was 1880 mg/kg/day, the NOAEL (mouse [2]; [9]) was 3750 mg/kg/day and the LEL (mouse [3]; [10]) was 465 mg/kg/day. The LOAEL (mouse [3]; [11]) was > 3750 mg/kg/day, the NEL (mouse [3]; [11]) was 240 mg/kg/day and the NOAEL (mouse [3]; [11]) was ≥ 3750 mg/kg/day. For the same compound, the LEL (rat [4]; [10]) was 625 mg/kg/day, the LOAEL (rat [4]; [10]) was 625 mg/kg/day and the NEL (rat [4]; [11]) was 315 mg/kg/day. For the same compound, the NOAEL (rat [4]; [11]) was 315 mg/kg/day, the LEL (rat [5]; [10]) was 1250 mg/kg/day and the LOAEL (rat [5]; [10]) was 2500 mg/kg/day. The NEL (rat [5]; [12]) was 625 mg/kg/day, the NOAEL (rat [5]; [12]) was 1250 mg/kg/day and the LEL (rat [6]) was 1250 mg/kg/day. It also gave an LOAEL (rat [6]) of 1250 mg/kg/day, an NEL (rat [6]) of 600 mg/kg/day and an NOAEL (rat [6]) of 600 mg/kg/day.
